From US10882837B2, “Amide compounds and use thereof” (ALPHALA CO., LTD., priority 2017, dated 2021)

Assays:
[1] = molecular target: GCGR (Homo sapiens, UniProt P47871); test: I125-glucagon binding assay (competition, GCGR membrane fractions); parameters: expressed in transfected cells; host or cells: CHO-K1; inhibition: dose or concentration left out as unconfirmed; details: for IC50: competition with I125-glucagon 0.0625 nM, membrane fractions from GCGR overexpressed CHO-K1 cells
In short: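 Membranes from CHO-K1 cells overexpressing GCGR (7.5 µg/well) were preincubated 5 min with serially diluted compound in 50 mM Tris pH 7.4, 0.5% BSA. I125-glucagon was then added at 0.0625 nM final and incubated 30 min at 25 °C. After filtration, bound radioactivity was counted and IC50 derived by non-linear regression.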

[2] = molecular target: T1, glucagon receptor (GCGR) (Homo sapiens, UniProt P47871); test: Glucagon cAMP inhibition assay (Cisbio cAMP Dynamic 2 HTRF); format: cell-based; details: GCGR overexpressed CHO-K1 cells or human primary hepatocytes (not specified); glucagon at EC50
T1 construct: expressed in transfected cells; host or cells: CHO-K1
In short: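 GCGR-overexpressing CHO-K1 cells or human primary hepatocytes in HBSS with 0.1% BSA and 800 nM IBMX, pre-incubated 30 min with compound (1% DMSO final), then stimulated 30 min at room temperature with glucagon at its EC50. cAMP measured by HTRF after 60 min lysis; IC50 from non-linear regression.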

GCGR, sequence (P47871 26-477, species assumed): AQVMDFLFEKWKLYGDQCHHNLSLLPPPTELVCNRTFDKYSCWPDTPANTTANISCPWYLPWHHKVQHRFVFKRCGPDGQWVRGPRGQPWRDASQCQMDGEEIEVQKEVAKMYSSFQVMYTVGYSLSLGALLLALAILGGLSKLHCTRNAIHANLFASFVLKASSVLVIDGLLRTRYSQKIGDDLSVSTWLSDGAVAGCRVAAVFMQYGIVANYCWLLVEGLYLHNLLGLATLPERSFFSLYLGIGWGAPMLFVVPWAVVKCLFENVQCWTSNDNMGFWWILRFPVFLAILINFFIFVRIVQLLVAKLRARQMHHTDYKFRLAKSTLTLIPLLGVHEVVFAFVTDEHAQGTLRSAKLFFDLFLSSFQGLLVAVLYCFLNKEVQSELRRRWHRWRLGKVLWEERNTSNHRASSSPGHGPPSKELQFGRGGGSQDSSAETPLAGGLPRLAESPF
T1 sequence (P47871 26-477, species assumed): as above

SMILES | IC50 [1] [nM] | IC50 [2] [nM] | inhibition ([1]; read-out: percentage of inhibition (number in parenthesis in IC50 binding column)) [%]
CCCC[C@@H](Nc1ccc(C(=O)NCCC(=O)OCC)cc1)c1ccc(-c2noc(C(F)(F)F)n2)cc1 [Compound 2-46, ethyl (R)-3-(4-((1-(4-(5-(trifluoromethyl)-1,2,4-oxadiazol-3-yl)phenyl)pentyl)amino)benzamido)propanoate] | > 30000 | 2880 | 
CCOC(=O)CCNC(=O)c1ccc(N[C@H](c2ccc(-c3noc(C(F)(F)F)n3)cc2)C(C)CC)cc1 (stereo partly drawn) [Compound 2-29, ethyl 3-(4-(((1S)-2-methyl-1-(4-(5-(trifluoromethyl)-1,2,4-oxadiazol-3-yl)phenyl)butyl)amino)benzamido)propanoate] | 1820 | 172 | 18
CCOC(=O)CCNC(=O)c1ccc(NC(c2ccc(-c3nnc(-c4ccc(F)cc4)o3)cc2)C(C)CC)cc1 (stereo not shown) [Compound 1-29, ethyl 3-(4-((1-(4-(5-(4-fluorophenyl)-1,3,4-oxadiazol-2-yl)phenyl)-2-methylbutyl)amino)benzamido)propanoate] | 4720 | 114 | 
CCC(C)[C@@H](Nc1ccc(C(=O)NCCC(=O)O)cc1)c1ccc(-c2nnc(-c3ccccc3)o2)cc1 (stereo partly drawn) [Compound 1-50, 3-(4-(((1R)-2-methyl-1-(4-(5-phenyl-2,3,4-oxadiazol-2-yl)phenyl)butyl)amino)benzamido)propanoic acid] | 82 | 2730 | 
CCOC(=O)CCNC(=O)c1ccc(C(Nc2ccc(-c3nnc(-c4ccc(F)cc4)o3)cc2)C(C)CC)cc1 (stereo not shown) [Compound 3-7, ethyl 3-(4-(1-((4-(5-(4-fluorophenyl)-1,3,4-oxadiazol-2-yl)phenyl)amino)-2-methylbutyl)benzamido)propanoate] | 246 | 159 | 
CC(C)CC(Nc1ccc(C(=O)NCCC(=O)O)cc1)c1ccc(-c2nnc(-c3ccccc3)o2)cc1 (stereo not shown) [Compound 1-5, 3-(4-((3-Methyl-1-(4-(5-phenyl-1,3,4-oxadiazol-2-yl)phenyl)butyl)amino)benzamido)propanoic acid] | 175 | 4130 | 
CCCC[C@H](Nc1ccc(C(=O)NCCC(=O)O)cc1)c1ccc(-c2noc(C(F)(F)F)n2)cc1 [Compound 2-47, (S)-3-(4-((1-(4-(5-(trifluoromethyl)-1,2,4-oxadiazol-3-yl)phenyl)pentyl)amino)benzamido)propanoic acid] | 254 | 428 | 
CC(C)C[C@H](Nc1ccc(C(=O)NCCC(=O)O)cc1)c1ccc(-c2noc(-c3ccccc3)n2)cc1 [Compound 2-43, (S)-3-(4-((3-methyl-1-(4-(5-phenyl-1,2,4-oxadiazol-3-yl)phenyl)butyl)amino)benzamido)propanoic acid] | > 30000 | 391 | 
CCCC[C@H](Nc1ccc(C(=O)NCCC(=O)O)cc1)c1ccc(-c2nnc(-c3ccccn3)o2)cc1 [Compound 1-45, (S)-3-(4-((1-(4-(5-(pyridin-2-yl)-1,3,4-oxadiazol-2yl)phenyl)pentyl)amino)benzamido)propanoic acid] | 339 | 2540 | 

The remaining lines, values ahead:

IC50 [1] [nM] | IC50 [2] [nM] | inhibition ([1]; read-out: percentage of inhibition (number in parenthesis in IC50 binding column)) [%] | SMILES
350 | 43 |  | CCCC[C@H](Nc1ccc(C(=O)NCCC(=O)OCC)cc1)c1ccc(-c2nc3ccccc3o2)cc1 [Compound 4-15, ethyl (S)-3-(4-((1-(4-(benzo[d]oxazol-2-yl)phenyl)pentyl)amino)benzamido)propanoate]
95 | 862 |  | O=C(O)CCNC(=O)c1ccc(N[C@H](c2ccc(-c3nc4ccccc4o3)cc2)C2CCCC2)cc1 [Compound 4-24, (S)-3-(4-(((4-(benzo[d]oxazol-2-yl)phenyl)(cyclopentyl)methyl)amino)benzamido)propanoic acid]
446 | 52 |  | CCOC(=O)CCNC(=O)c1ccc(N[C@H](c2ccc(-c3nc4ccccc4o3)cc2)C(C)CC)cc1 (stereo partly drawn) [Compound 4-19, Ethyl 3-(4-(((1S)-1-(4-(benzo[d]oxazol-2-yl)phenyl)-2-methylbutyl)amino)benzamido)propanoate]
